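Where inhibition never reached the appropriate level, the endpoint shown equals the highest concentration tested. Otherwise, values were interpolated linearly from a five-concentration, 48-hour dose response in 96-well plates. The concentration for full growth arrest is given as TGI.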
Columns and labels:
Assay in all cases: NCI tumour cell line growth inhibition, 48 h
[1] = test system: HL-60(TB) leukemia
[2] = test system: PC-3 prostate
[3] = test system: EKVX NSCLC
[4] = test system: HS 578T breast
[5] = test system: NCI-H460 lung
[6] = test system: NCI/ADR-RES ovarian
[7] = test system: OVCAR-8 ovarian
[8] = test system: UO-31 renal
[9] = test system: UACC-257 melanoma
[10] = test system: SN12C renal
[11] = test system: HOP-62 NSCLC
[12] = test system: HT29 colon
[13] = test system: TK-10 renal
[14] = test system: MCF7 breast
[15] = test system: SW-620 colon
[16] = test system: HCT-116 colon
[17] = test system: BT-549 breast
[18] = test system: RXF 393 renal
[19] = test system: SF-268 CNS
[20] = test system: SK-MEL-28 melanoma
[21] = test system: NCI-H23 lung
[22] = test system: MDA-MB-231 breast
[23] = test system: LOX IMVI melanoma
[24] = test system: CAKI-1 renal
[25] = test system: HCC-2998 colon
[26] = test system: OVCAR-5 ovarian
[27] = test system: K-562 leukemia
[28] = test system: MOLT-4 leukemia
[29] = test system: 786-0 renal
[30] = test system: SF-539 CNS
[31] = test system: NCI-H522 lung
[32] = test system: HOP-92 NSCLC
[33] = test system: COLO 205 colon
[34] = test system: SK-MEL-2 melanoma
[35] = test system: DU-145 prostate
[36] = test system: OVCAR-4 ovarian
[37] = test system: CCRF-CEM leukemia
[38] = test system: A549 NSCLC
[39] = test system: M14 melanoma
[40] = test system: NCI-H226 lung
[41] = test system: UACC-62 melanoma
[42] = test system: SNB-19 CNS
[43] = test system: SK-MEL-5 melanoma
[44] = test system: T-47D breast
[45] = test system: SR leukemia
[46] = test system: HCT-15 colon
[47] = test system: MALME-3M melanoma
[48] = test system: MDA-N
[49] = test system: KM12 colon
[50] = test system: SF-295 CNS
[51] = test system: MDA-MB-435
[52] = test system: ACHN renal
[53] = test system: SK-OV-3 ovarian
[54] = test system: SNB-75 CNS
[55] = test system: U251 CNS
[56] = test system: OVCAR-3 ovarian
[57] = test system: A498 renal
[58] = test system: IGROV1 ovarian
[59] = test system: RPMI-8226 leukemia

`COc1ccc(C(SCCO)(c2ccc(OC)cc2)c2ccc(OC)cc2)cc1` was tested, and the TGI [1] was 87.7 µM, the TGI [2] was 42.3 µM and the TGI [3] was 36.5 µM. For the same compound, the TGI [4] was 44.7 µM, the TGI [5] was 35.8 µM and the TGI [6] was 49.1 µM. It also gave a TGI [7] of 37.7 µM, a TGI [8] of 34.4 µM and a TGI [9] of 32.5 µM. The TGI [10] was 33.9 µM, the TGI [11] was 44.6 µM and the TGI [12] was 46 µM. For the same compound, the TGI [13] was 55 µM, the TGI [14] was 31.6 µM and the TGI [15] was 81.1 µM. For the same compound, the TGI [16] was 29.2 µM, the TGI [17] was 38.4 µM and the TGI [18] was 30.9 µM. It also gave a TGI [19] of 43.9 µM, a TGI [20] of 38.6 µM and a TGI [21] of 45.2 µM. For the same compound, the TGI [22] was 46.6 µM, the TGI [23] was 27.1 µM and the TGI [24] was > 100 µM. It also gave a TGI [25] of 30.5 µM, a TGI [26] of 79.7 µM and a TGI [27] of 28.4 µM. For the same compound, the TGI [28] was 56.4 µM, the TGI [29] was 29.7 µM and the TGI [30] was 30.6 µM. It also gave a TGI [31] of 28.2 µM, a TGI [32] of 28.8 µM and a TGI [33] of 25.7 µM. The TGI [34] was 31.7 µM, the TGI [35] was > 100 µM and the TGI [36] was > 100 µM. It also gave a TGI [37] of 66 µM, a TGI [38] of 69.3 µM and a TGI [39] of 38.5 µM. For the same compound, the TGI [40] was 32.7 µM, the TGI [41] was 30.1 µM and the TGI [42] was > 100 µM. For the same compound, the TGI [43] was 24.6 µM, the TGI [44] was 33.7 µM and the TGI [45] was 26.7 µM. For the same compound, the TGI [46] was 44.6 µM, the TGI [47] was 34.3 µM and the TGI [48] was 18.1 µM. It also gave a TGI [49] of 71.1 µM, a TGI [50] of 39.2 µM and a TGI [51] of 23.5 µM. For the same compound, the TGI [52] was 50.2 µM, the TGI [53] was 94.5 µM and the TGI [54] was 61.1 µM. The TGI [55] was 32.6 µM, the TGI [56] was 28.4 µM and the TGI [57] was 40.1 µM.

`COC(=O)N1C2C(C[C@@]1(C)C(=O)OC)c1ccccc1N2S(=O)(=O)c1ccccc1` (stereo not given in full) was tested, and the TGI [1] was > 100 µM, the TGI [2] was > 100 µM and the TGI [3] was > 100 µM. The TGI [4] was > 100 µM, the TGI [5] was > 100 µM and the TGI [58] was > 100 µM. For the same compound, the TGI [6] was > 100 µM, the TGI [7] was > 100 µM and the TGI [8] was > 100 µM. For the same compound, the TGI [9] was > 100 µM, the TGI [12] was > 100 µM and the TGI [13] was > 100 µM. For the same compound, the TGI [14] was > 100 µM, the TGI [15] was > 100 µM and the TGI [16] was > 100 µM. For the same compound, the TGI [17] was > 100 µM, the TGI [18] was > 100 µM and the TGI [19] was > 100 µM. For the same compound, the TGI [20] was > 100 µM, the TGI [21] was > 100 µM and the TGI [22] was > 100 µM. The TGI [23] was > 100 µM, the TGI [24] was > 100 µM and the TGI [25] was > 100 µM. For the same compound, the TGI [26] was > 100 µM, the TGI [27] was > 100 µM and the TGI [28] was > 100 µM. The TGI [29] was > 100 µM, the TGI [31] was > 100 µM and the TGI [32] was > 100 µM. The TGI [33] was > 100 µM, the TGI [34] was > 100 µM and the TGI [35] was > 100 µM. The TGI [36] was > 100 µM, the TGI [37] was > 100 µM and the TGI [38] was > 100 µM. The TGI [39] was > 100 µM, the TGI [40] was > 100 µM and the TGI [41] was > 100 µM. The TGI [42] was > 100 µM, the TGI [43] was > 100 µM and the TGI [44] was > 100 µM. The TGI [45] was > 100 µM, the TGI [47] was > 100 µM and the TGI [48] was > 100 µM. The TGI [49] was > 100 µM, the TGI [59] was > 100 µM and the TGI [50] was > 100 µM. The TGI [51] was > 100 µM, the TGI [52] was > 100 µM and the TGI [53] was > 100 µM. The TGI [54] was > 100 µM and the TGI [56] was > 100 µM.
